# ± gives the expanded uncertainty stated by the source.
# Assay: xn = mol fraction of the nth substance listed
# Conditions: 298.15 K, Liquid
structure (smiles),measurement,setting,value
CCCCCCCl [1-chlorohexane] + CC(=O)N(C)C,mass density,"100 kPa, x2 = 0.0952",877.1 ± 0.5 kg/m3
same,mass density,"100 kPa, x2 = 0.2003",881.6 ± 0.5 kg/m3
same,mass density,"100 kPa, x2 = 0.3011",886.4 ± 0.5 kg/m3
same,mass density,"100 kPa, x2 = 0.4036",891.9 ± 0.5 kg/m3
same,mass density,"100 kPa, x2 = 0.503",897.5 ± 0.5 kg/m3
same,mass density,"100 kPa, x2 = 0.6051",903.8 ± 0.4 kg/m3
same,mass density,"100 kPa, x2 = 0.6992",910.4 ± 0.4 kg/m3
same,mass density,"100 kPa, x2 = 0.8013",918.4 ± 0.4 kg/m3
same,mass density,"100 kPa, x2 = 0.8996",926.8 ± 0.4 kg/m3
same,mass density,"2000 kPa, x2 = 0.0952",878.7 ± 0.5 kg/m3
same,mass density,"2000 kPa, x2 = 0.2003",883.2 ± 0.5 kg/m3
same,mass density,"2000 kPa, x2 = 0.3011",888 ± 0.5 kg/m3
same,mass density,"2000 kPa, x2 = 0.4036",893.41 ± 0.48 kg/m3
same,mass density,"2000 kPa, x2 = 0.503",899 ± 0.5 kg/m3
same,mass density,"2000 kPa, x2 = 0.6051",905.2 ± 0.5 kg/m3
same,mass density,"2000 kPa, x2 = 0.6992",911.7 ± 0.5 kg/m3
same,mass density,"2000 kPa, x2 = 0.8013",919.7 ± 0.5 kg/m3
same,mass density,"2000 kPa, x2 = 0.8996",928.1 ± 0.4 kg/m3
same,mass density,"4000 kPa, x2 = 0.0952",880.4 ± 0.5 kg/m3
same,mass density,"4000 kPa, x2 = 0.2003",884.8 ± 0.5 kg/m3
same,mass density,"4000 kPa, x2 = 0.3011",889.5 ± 0.5 kg/m3
same,mass density,"4000 kPa, x2 = 0.4036",895 ± 0.5 kg/m3
same,mass density,"4000 kPa, x2 = 0.503",900.4 ± 0.5 kg/m3
same,mass density,"4000 kPa, x2 = 0.6051",906.7 ± 0.5 kg/m3
same,mass density,"4000 kPa, x2 = 0.6992",913.1 ± 0.5 kg/m3
same,mass density,"4000 kPa, x2 = 0.8013",921 ± 0.5 kg/m3
same,mass density,"4000 kPa, x2 = 0.8996",929.3 ± 0.5 kg/m3
same,mass density,"6000 kPa, x2 = 0.0952",882 ± 0.6 kg/m3
same,mass density,"6000 kPa, x2 = 0.2003",886.4 ± 0.6 kg/m3
same,mass density,"6000 kPa, x2 = 0.3011",891.2 ± 0.6 kg/m3
same,mass density,"6000 kPa, x2 = 0.4036",896.5 ± 0.5 kg/m3
same,mass density,"6000 kPa, x2 = 0.503",901.9 ± 0.5 kg/m3
same,mass density,"6000 kPa, x2 = 0.6051",908.1 ± 0.5 kg/m3
same,mass density,"6000 kPa, x2 = 0.6992",914.5 ± 0.5 kg/m3
same,mass density,"6000 kPa, x2 = 0.8013",922.3 ± 0.5 kg/m3
same,mass density,"6000 kPa, x2 = 0.8996",930.5 ± 0.5 kg/m3
same,mass density,"8000 kPa, x2 = 0.0952",883.6 ± 0.6 kg/m3
same,mass density,"8000 kPa, x2 = 0.2003",888 ± 0.6 kg/m3
same,mass density,"8000 kPa, x2 = 0.3011",892.7 ± 0.6 kg/m3
same,mass density,"8000 kPa, x2 = 0.4036",898 ± 0.6 kg/m3
same,mass density,"8000 kPa, x2 = 0.503",903.4 ± 0.6 kg/m3
same,mass density,"8000 kPa, x2 = 0.6051",909.5 ± 0.5 kg/m3
same,mass density,"8000 kPa, x2 = 0.6992",915.9 ± 0.5 kg/m3
same,mass density,"8000 kPa, x2 = 0.8013",923.6 ± 0.5 kg/m3
same,mass density,"8000 kPa, x2 = 0.8996",931.7 ± 0.5 kg/m3
same,mass density,"10000 kPa, x2 = 0.0952",885.3 ± 0.6 kg/m3
same,mass density,"10000 kPa, x2 = 0.2003",889.6 ± 0.6 kg/m3
same,mass density,"10000 kPa, x2 = 0.3011",894.3 ± 0.6 kg/m3
same,mass density,"10000 kPa, x2 = 0.4036",899.6 ± 0.6 kg/m3
same,mass density,"10000 kPa, x2 = 0.503",904.9 ± 0.6 kg/m3
same,mass density,"10000 kPa, x2 = 0.6051",910.9 ± 0.6 kg/m3
same,mass density,"10000 kPa, x2 = 0.6992",917.3 ± 0.5 kg/m3
same,mass density,"10000 kPa, x2 = 0.8013",925 ± 0.5 kg/m3
same,mass density,"10000 kPa, x2 = 0.8996",933.1 ± 0.5 kg/m3
same,mass density,"11900 kPa, x2 = 0.6992",918.6 ± 0.6 kg/m3
same,mass density,"12000 kPa, x2 = 0.0952",886.8 ± 0.7 kg/m3
same,mass density,"12000 kPa, x2 = 0.2003",891.2 ± 0.7 kg/m3
same,mass density,"12000 kPa, x2 = 0.3011",895.8 ± 0.6 kg/m3
same,mass density,"12000 kPa, x2 = 0.4036",901 ± 0.6 kg/m3
same,mass density,"12000 kPa, x2 = 0.503",906.3 ± 0.6 kg/m3
same,mass density,"12000 kPa, x2 = 0.6051",912.3 ± 0.6 kg/m3
same,mass density,"12000 kPa, x2 = 0.8013",926.3 ± 0.5 kg/m3
same,mass density,"12000 kPa, x2 = 0.8996",934.3 ± 0.5 kg/m3
same,mass density,"14000 kPa, x2 = 0.0952",888.4 ± 0.7 kg/m3
same,mass density,"14000 kPa, x2 = 0.2003",892.78 ± 0.68 kg/m3
same,mass density,"14000 kPa, x2 = 0.3011",897.2 ± 0.7 kg/m3
same,mass density,"14000 kPa, x2 = 0.4036",902.4 ± 0.7 kg/m3
same,mass density,"14000 kPa, x2 = 0.503",907.6 ± 0.6 kg/m3
same,mass density,"14000 kPa, x2 = 0.6051",913.6 ± 0.6 kg/m3
same,mass density,"14000 kPa, x2 = 0.6992",919.9 ± 0.6 kg/m3
same,mass density,"14000 kPa, x2 = 0.8013",927.5 ± 0.6 kg/m3
same,mass density,"14000 kPa, x2 = 0.8996",935.5 ± 0.5 kg/m3
same,mass density,"16000 kPa, x2 = 0.0952",889.9 ± 0.7 kg/m3
same,mass density,"16000 kPa, x2 = 0.2003",894.1 ± 0.7 kg/m3
same,mass density,"16000 kPa, x2 = 0.3011",898.7 ± 0.7 kg/m3
same,mass density,"16000 kPa, x2 = 0.4036",903.8 ± 0.7 kg/m3
same,mass density,"16000 kPa, x2 = 0.503",909 ± 0.7 kg/m3
same,mass density,"16000 kPa, x2 = 0.6051",914.9 ± 0.6 kg/m3
same,mass density,"16000 kPa, x2 = 0.6992",921.2 ± 0.6 kg/m3
same,mass density,"16000 kPa, x2 = 0.8013",928.7 ± 0.6 kg/m3
same,mass density,"16000 kPa, x2 = 0.8996",936.6 ± 0.6 kg/m3
same,mass density,"18000 kPa, x2 = 0.0952",891.3 ± 0.8 kg/m3
same,mass density,"18000 kPa, x2 = 0.2003",895.6 ± 0.7 kg/m3
same,mass density,"18000 kPa, x2 = 0.3011",900.1 ± 0.7 kg/m3
same,mass density,"18000 kPa, x2 = 0.4036",905.2 ± 0.7 kg/m3
same,mass density,"18000 kPa, x2 = 0.503",910.3 ± 0.7 kg/m3
same,mass density,"18000 kPa, x2 = 0.6051",916.2 ± 0.7 kg/m3
same,mass density,"18000 kPa, x2 = 0.6992",922.6 ± 0.6 kg/m3
same,mass density,"18000 kPa, x2 = 0.8013",929.9 ± 0.6 kg/m3
same,mass density,"18000 kPa, x2 = 0.8996",937.7 ± 0.6 kg/m3
same,mass density,"20000 kPa, x2 = 0.0952",892.9 ± 0.8 kg/m3
same,mass density,"20000 kPa, x2 = 0.2003",897.2 ± 0.8 kg/m3
same,mass density,"20000 kPa, x2 = 0.3011",901.8 ± 0.7 kg/m3
same,mass density,"20000 kPa, x2 = 0.503",911.8 ± 0.7 kg/m3
same,mass density,"20000 kPa, x2 = 0.6051",917.7 ± 0.67 kg/m3
same,mass density,"20000 kPa, x2 = 0.6992",924 ± 0.6 kg/m3
same,mass density,"20000 kPa, x2 = 0.8013",931.3 ± 0.6 kg/m3
same,mass density,"20100 kPa, x2 = 0.4036",906.8 ± 0.7 kg/m3
same,mass density,"20100 kPa, x2 = 0.8996",939 ± 0.6 kg/m3
